Test results reported in article PMC7374170, “TRIB3-EGFR interaction promotes lung cancer progression and defines a therapeutic target” (Nature Communications, 2020).

What was measured:
[1] = system: proteinase K; assay: Metabolic stability of peptide: proteinase K resistance; type: in vitro ADME; details: panel Fig.S6e
Method: Metabolic stability of peptide
The sample solution consisted of 15 µl peptide solution (1 mM ) and 585 µl Tris-HCl (pH = 7.4) buffer. Pepsin solution (4,500 U ml-1, 8 µl) or proteinase K solution (4 ng ml-1, 8 µl) was added to the sample solution and incubated at 25℃ for indicated times. Peptide concentrations were […]
detected by Exactive™ Plus Orbitrap (Thermo Fisher Scientific, USA). […]

[2] = system: A549 cells; assay: A549 subcutaneous xenograft (tumor growth, tumor weight, liver metastasis); type: in vivo, BALB/c nude mice; details: dose not given
Description: Fig. 7 Targeting EGFR stability inhibits lung cancer initiation and progression. a A549 tumor growth curves under different treatment. b Quantitative analysis of metastatic nodule numbers from mice as described in a. c NCI-H1975 tumor growth curves under different treatment. d Quantitative analysis of metastatic nodule numbers from mice as described in c. Data in a–d are presented as means ± SEM, n = 8. e The EGFR–TRIB3 or EGFR–PKCα interaction in xenograft tumors from indicated mice were detected with CO-IP assays. […] Statistical difference was determined by two-sided log-rank test, n = 14. i Survival curves for mice orthotopically lung implanted with NCI-H1975 cells under indicated treatment. […] Data are means ± SEM of three independent assays. Statistical significance between two groups was determined with two-tailed Student’s t test. Statistical significance among groups was determined by one-way ANOVA test. Source data are provided as a Source Data file. […]
a, Quantified tumor weight from mice subcutaneously inoculated with A549 cells under indicated treatment after tumor inoculation. Data are means ± SEM, n = 8. b, Representative graphs of liver and immunohistochemical staining of the liver sections with anti-hMitochondria […]
IB. Data are means ± SEM of 3 independent assays. Data in d-h are representatives of 3 independent assays. Statistical significance between two groups was determined by two-tailed Student’s t-test; Statistical significance among groups was determined by one-way ANOVA test. Source data are provided as a Source Data ﬁle.
For the subcutaneous tumor model, A549 (1.0×10 5), NCI-H1975 (3.0×105) or patient-derived NSCLC cancer cells (4.0×105) were injected subcutaneously into the right flank of each mouse to establish the NSCLC xenograft model. When average tumor volume reached about 100 mm3, mice were randomized into various groups for different sets of experiments. Tumor growth was monitored twice weekly with a caliper. Tumor volume (TV) was calculated using the formula: […]

[3] = system: NCI-H1975 cells; assay: NCI-H1975 subcutaneous xenograft (tumor growth, tumor weight, metastasis); type: in vivo, BALB/c nude mice; details: dose not given

In the case of CC[C@H](C)[C@H](NC(=O)[C@H](CCCNC(=N)N)NC(=O)[C@H](CC(C)C)NC(=O)[C@H](CC(C)C)NC(=O)[C@H](C)NC(=O)[C@H](CCC(N)=O)NC(=O)[C@@H](N)CC(N)=O)C(=O)N[C@@H](CC(C)C)C(=O)N[C@@H](CCCNC(=N)N)C(=O)N[C@@H](CCC(=O)O)C(=O)N[C@H](C(=O)N[C@@H](CCC(=O)O)C(=O)N[C@@H](Cc1ccccc1)C(=O)N[C@@H](CCCCN)C(=O)N[C@@H](CCCCN)C(=O)O)[C@@H](C)O [JGZ], the “Fraction Intact (%)” value ([1]; time 45 min, replicate 1) is reported as 15.4158%, the “Fraction Intact (%)” value ([1]; time 45 min, replicate 2) is reported as 19.3884% and the “Fraction Intact (%)” value ([1]; time 45 min, replicate 3) is reported as 17.4109%. The “Fraction Intact (%)” value ([1]; time 90 min, replicate 1) was 4.517%, the “Fraction Intact (%)” value ([1]; time 90 min, replicate 2) was 5.842% and the “Fraction Intact (%)” value ([1]; time 90 min, replicate 3) was 5.149%. For the same molecule, the “Fraction Intact (%)” value ([1]; time 135 min, replicate 1) was 1.978%, the “Fraction Intact (%)” value ([1]; time 135 min, replicate 2) was 2.87% and the “Fraction Intact (%)” value ([1]; time 135 min, replicate 3) was 2.235%. The “Fraction Intact (%)” value ([1]; time 180 min, replicate 1) was 0.9859%, the “Fraction Intact (%)” value ([1]; time 180 min, replicate 2) was 1.636% and the “Fraction Intact (%)” value ([1]; time 180 min, replicate 3) was 1.16%. The “Fraction Intact (%)” value ([1]; time 225 min, replicate 1) was 0.5923%, the “Fraction Intact (%)” value ([1]; time 225 min, replicate 2) was 0.9865% and the “Fraction Intact (%)” value ([1]; time 225 min, replicate 3) was 0.582%. For the same molecule, the “Fraction Intact (%)” value ([1]; time 270 min, replicate 1) was 0.003342%, the “Fraction Intact (%)” value ([1]; time 270 min, replicate 2) was 0.3276% and the “Fraction Intact (%)” value ([1]; time 270 min, replicate 3) was 0.1279%. The “Fraction Intact (%)” value ([1]; time 360 min, replicate 1) was 0%, the “Fraction Intact (%)” value ([1]; time 360 min, replicate 2) was 0.07064% and the “Fraction Intact (%)” value ([1]; time 360 min, replicate 3) was 0.09951%. For the same molecule, the “Fraction Intact (%)” value ([1]; time 450 min, replicate 1) was 0%, the “Fraction Intact (%)” value ([1]; time 450 min, replicate 2) was 0.04231% and the “Fraction Intact (%)” value ([1]; time 450 min, replicate 3) was 0.01388%. For the same molecule, the “Fraction Intact (%)” value ([1]; time 540 min, replicate 1) was 0%, the “Fraction Intact (%)” value ([1]; time 540 min, replicate 2) was 0.01049% and the “Fraction Intact (%)” value ([1]; time 540 min, replicate 3) was 0.003119%.

In the case of COc1cc2ncnc(Nc3ccc(F)c(Cl)c3)c2cc1OCCCN1CCOCC1 [gefitinib], the “Tumor Weight” value ([2]; animal 1) is reported as 0.95 g, the “Tumor Weight” value ([2]; animal 2) is reported as 0.28 g and the “Tumor Weight” value ([2]; animal 3) is reported as 0.5 g. The “Tumor Weight” value ([2]; animal 4) was 0.76 g, the “Tumor Weight” value ([2]; animal 5) was 0.71 g and the “Tumor Weight” value ([2]; animal 6) was 0.63 g. The “Tumor Weight” value ([2]; animal 7) was 0.92 g, the “Tumor Weight” value ([2]; animal 8) was 0.87 g and the “Tumor Weight” value ([3]; animal 1) was 0.19 g. For the same molecule, the “Tumor Weight” value ([3]; animal 2) was 0.56 g, the “Tumor Weight” value ([3]; animal 3) was 0.23 g and the “Tumor Weight” value ([3]; animal 4) was 0.63 g. The “Tumor Weight” value ([3]; animal 5) was 0.13 g, the “Tumor Weight” value ([3]; animal 6) was 0.48 g and the “Tumor Weight” value ([3]; animal 7) was 0.33 g. The “Tumor Weight” value ([3]; animal 8) was 0.37 g.
